# Measurements taken from US20150247149A1, “Detecting and Treating Liver Damage” (The Regents of the University of California, priority 2012, published 2015).
# Tested on: HepG2 and primary rat hepatocytes
# Experiment: Release of Annexin V-positive MPs from hepatocytes (flow cytometry)
# Type: cell-based, human (HepG2); rat (primary hepatocytes)
# Settings: hepatocytes incubated with 0.25 mM FFA up to 24 h, vs controls (FIGS. 2D, 2F, 9)
# Procedure: For microparticles (MPs) isolation, HepG2 and primary rat hepatocytes were seeded onto a 100 mm dish and cultured until reaching 80-85% of confluence. Cells were incubated with 0.25 mM of palmitic, stearic, oleic or linoleic acid (FFA) in serum-free DMEM, supplemented with 1.1% penicillin and streptomycin, 1% endotoxin-free bovine serum albumin (BSA), for up to 24 h. […] The uptake of FFAs from hepatocytes was evaluated by Oil red-O staining kit (Cayman, Ann Arbor, Mich., USA) according to the manufacturer instruction. To determine the effect of caspase 3 activity, hepatocytes were treated with a selective caspase 3 inhibitor, Ac-DEVD-CHO (BD Pharmingen, Franklin Lakes, N.J., US). Control cells were incubated with the same serum-free media in association to the vehicle that was used to dissolve the FFAs. After 24 h, the supernatant were collected and centrifuged twice at 3,000 rpm for 15 minutes to remove cell debris and aggregates. The supernatant was then transferred to new tubes and ultracentrifuged at 100,000 g for 90 minutes at 10° C., to avoid contamination of exosomes.
# The supernatant was collected in new tubes and used as a MP-free control and the pelleted MPs were resuspended in 200 μl of PBS for flow cytometry or in 500 μl of EGM-2 growth medium for subsequent in vitro studies. The concentration of microparticles μg/mL was determined by the BCA protein assay and different concentrations of MPs (50, 125, 250 and 500 μg/mL) were used to perform the dose-dependent angiogenesis in vitro assays. For selected purposes, in particular for the characterization analyses, crude MPs were purified by 10-70% sucrose gradient ultracentrifugation at 150,000 g for 18 h at 10° C., collected as fractions in new tubes. […]
# Flow cytometry analyses for microparticles (or endothelial cells) detection were performed by using BD LSRII Flow Cytometer System (BD Biosciences, San Jose, Calif., USA) and the data were analyzed using FlowJo software (TreeStar Inc., Ashland, Oreg., USA). […]
row,SMILES,Annexin V positive MPs in supernatants (MP formation/release)
1,CCCCCCCCCCCCCCCC(=O)O [palmitic acid],marked increase
2,CCCCCCCC/C=C\CCCCCCCC(=O)O [oleic acid],failed to induce any increase
